Columns and labels:
[1] = tested on: rabbit liver esterase; assay: Incubation with rabbit liver esterase, HPLC analysis; type: in vitro ADME; conditions: 30 min
[2] = tested on: MDA-MB-231 breast cancer cells; assay: In vitro cytotoxicity, Alamar blue metabolic assay, scaffolds in transwell inserts; type: cell-based
Protocol: MDA-MB-231 breast cancer cells and primary human dermal fibroblasts (HDFs) were obtained from the ATCC (USA). Both cell types were cultured in DMEM supplemented with 10% fetal bovine serum (FBS) and 25 μg/mL Gentamicin. For toxicity studies HDFs were seeded at 5,000 cells per well/1 mL medium in a 12-well plate and allowed to reach confluency prior to application of experimental conditions. MDA-MB-231 cell were seeded in 12-well plates at a seeding density of 5,000 per well/1 mL medium and incubated at 37° C. in a humidified atmosphere of 95% air and 5% CO2 for 24 h prior to application of experimental conditions. […]
Cells subjected to these experimental conditions were allowed to culture for 6 days at which point cell viability was measured using Alamar blue metabolic assay. […] The supernatant from each well was transferred to a 96-well plate and was measured using a fluorescence plate reader (Tecan, Männedorf, Switzerland) by applying wavelength excitation of 560 nm and read it at emission of 590 nm, which is directly correlated to the viable cell number, and inversely correlated with the toxicity of the cross-linked polymer tissue scaffolds. The mean absorbance for each treatment was determined and then expressed as a percent of viability relative to the control. […]

Row | SMILES | conversion to the free acid [1] | IC50 ([2]; Homo sapiens, 144 h, MDA-MB-231, 6 days, free curcumin dissolved in DMSO, diluted in media, max 1% DMSO) [µM] | curcumin uptake by cells or degradation after addition to media ([2]; free curcumin added to cell culture media)
1 | CCOC(=O)[C@H](Cc1ccc(O)cc1)NC(=O)CCc1ccc(O)cc1 [DTE, desaminotyrosyl-tyrosine ethyl ester] | approximately 70% |  | 
2 | COc1cc(/C=C/C(=O)CC(=O)/C=C/c2ccc(O)c(OC)c2)ccc1O [free curcumin, curcumin] |  | 14 | less than 48 hours

From US10105467B2, “Biocompatible polymer compositions for tissue void filling” (Rutgers, The State University of New Jersey, priority 2013, dated 2018)
